We go through 9 compounds from PubChem BioAssay (NCI).

Common to all, as to assay: NCI tumour cell line growth inhibition, 48 h
The test system of assay [1] is T-47D breast.
The test system of assay [2] is PC-3 prostate.
In assay [3] the test system is OVCAR-8 ovarian.
Assay [4] deals with UO-31 renal.
Assay [5] concerns HS 578T breast.
Assay [6] concerns SW-620 colon.
The subject of assay [7] is HT29 colon.
The test system of assay [8] is IGROV1 ovarian.
Assay [9] concerns HCT-116 colon.
The subject of assay [10] is HCT-15 colon.

Each structure is given as a SMILES string. Values joined by “and” are separate entries in the source; they are usually repeats but may differ in a detail not shown here. Equal values may be shown once.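 Step 1: Grow cells in 96-well plates. Step 2: Expose to compound for 48 hours at 5 concentrations. Step 3: Interpolate endpoints linearly; if unreached, use highest concentration. The concentration for 50% growth inhibition is given as GI50. TGI marks complete inhibition of growth.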

As for `CC1CCC2(NC1)OC1CC3C4CC=C5CC(O)CCC5(C)C4CCC3(C)C1C2C` (stereo unspecified), the TGI in assay [1] was 49 µM and 48.9 µM; in [2], over 100 µM; in assay [3], 35.9 µM and 49 µM; in [4] it was 37.8 µM and 13.8 µM; in assay [5], > 100 µM and 37 µM; in assay [6], over 100 µM. Also, the TGI was over 100 µM in assay [7]; over 100 µM in [8]; 53.5 µM and > 68.1 µM in [9]; over 100 µM in assay [10]. The GI50 is 10.6 µM and 5.16 µM in assay [3]; 18.2 µM and 6.3 µM in [4].

On to `Cc1ncc(C(=O)Nc2ccc(CN3CCN(C)CC3)c(C(F)(F)F)c2)cc1C#Cc1cnc2cccnn12`, for which the GI50 in assay [1] was 1.91 µM; in [2], 0.651 µM; in assay [3], 0.339 µM; in assay [4], 0.242 µM; in assay [5] it was 0.625 µM; in assay [6] it was 0.239 µM. The GI50 is 0.199 µM in assay [7], 0.268 µM in [8], 0.178 µM in assay [9] and 0.593 µM in assay [10]. Further, the TGI in assay [1] turned out to be 12.3 µM; in [2], 4.79 µM; in assay [3], 5.98 µM; in [4] it was 1.91 µM; in assay [5] it was 3.3 µM; in [6] it was 2.59 µM. The TGI in assay [7] is 14.5 µM; in assay [8], 4.45 µM; in assay [9], 0.743 µM; in assay [10], 4.45 µM.

For the compound `Cc1nc(N)nc2c1CCC(O)S2` (stereo unspecified), the GI50 in assay [1] is 5.25 µM; in assay [2], 3.52 µM; in [3] it was 3.73 µM; in assay [4] it was 39.7 µM; in assay [5], 10.7 µM; in assay [6] it was 3.64 µM. For the same compound, the GI50 in assay [7] was 4.24 µM; in assay [8] it was 4.67 µM; in assay [9] it was 2.39 µM; in assay [10], 26.3 µM. Further, the TGI was 30.2 µM in assay [1]; 44.7 µM in [2]; 24 µM in assay [3]; over 100 µM in assay [4]; over 100 µM in assay [5]; 14.1 µM in assay [6]. Moreover, the TGI in assay [7] is 17.3 µM; in assay [8], 17.9 µM; in assay [9], 6.04 µM; in assay [10], over 100 µM.

As to `O=C1CC2C(=O)c3ccccc3CC2c2ccccc21` (stereo unspecified), the TGI in assay [1] is 87.7 µM; in assay [2], over 100 µM; in assay [3], over 100 µM; in [4], over 100 µM; in [5], over 100 µM; in [6], over 100 µM. Also, the TGI in assay [7], in assay [8], in assay [9] and in assay [10] was over 100 µM each time.

As for `O=C(NOC[C@H](O)CO)c1ccc(F)c(F)c1Nc1ccc(I)cc1F`, the GI50 in [1] was 51.5 µM and > 4.02 µM; in assay [2], 62.6 µM and > 10 µM; in assay [3], 21.7 µM and > 7.5 µM; in assay [4] it was 0.302 µM and 0.0357 µM; in [5], 34.5 µM and > 2.97 µM; in [6], < 0.01 µM and 0.00315 µM. Besides, the GI50 was < 0.01 µM and 0.00291 µM in assay [7]; 0.0265 µM and 0.0182 µM in [9]; 2.73 µM and 0.919 µM in [10]. Moreover, the TGI in [1] was over 100 µM; in [2] it was over 100 µM; in assay [3] it was over 100 µM; in [4], over 72.2 µM; in assay [5] it was over 100 µM; in assay [6] it was over 100 µM. Further, the TGI in assay [7], in [8], in assay [9] and in [10] was over 100 µM throughout.

For `COc1cc(F)c(F)c(Nc2ccc(I)cc2F)c1NS(=O)(=O)C1(C[C@H](O)CO)CC1`, the GI50 in assay [1] was over 4.02 µM; in [2], over 6.75 µM; in assay [3], over 6.48 µM; in assay [4], 0.295 µM; in assay [5], over 5.43 µM; in assay [6], 0.0591 µM. Besides, the GI50 in [7] was 0.0308 µM; in [8] it was 0.223 µM; in assay [9], 0.201 µM; in assay [10] it was 1.67 µM. Moreover, the TGI in assay [1] was over 9.3 µM; in assay [2], over 10 µM; in [3], over 10 µM; in assay [4], over 10 µM; in assay [5] it was over 10 µM; in assay [6], over 10 µM. Also, the TGI was over 10 µM in [7], over 5.56 µM in assay [8], over 10 µM in [9] and over 10 µM in [10].

Turning to `CCOC(=O)c1cc2cc3c4c(c2oc1=O)CCCN4CCC3`, the TGI in assay [1] is 53.6 µM; in [2], 97.5 µM; in assay [3], 72.9 µM; in assay [4], over 100 µM; in assay [5], 89.2 µM; in assay [6] it was over 100 µM. The TGI was over 100 µM in [7], over 100 µM in assay [8], 79 µM in [9] and over 100 µM in [10].

As for `COc1cc2ncn(-c3cc(OCc4ccccc4C(F)(F)F)c(C(=O)N(C)C)s3)c2cc1OC`, the GI50 in assay [1] was 7.02 µM; in assay [2], over 19 µM; in assay [3] it was 17.7 µM; in [4], 9.69 µM; in assay [5] it was over 25 µM; in [6], over 25 µM. The GI50 in [7], in assay [8], in [9] and in assay [10] was over 25 µM each time. The TGI in assay [1] was over 17 µM; in [2], over 25 µM; in assay [3], over 25 µM; in [4] it was over 25 µM; in [5], over 25 µM; in [6], over 25 µM. Further, the TGI in assay [7], in assay [8], in assay [9] and in assay [10] was over 25 µM in each case.

`COc1ccc(NC(=O)CSC2=C(Nc3cccc(Br)c3)C(=O)N(Cc3ccccc3)C2=O)cc1Cl`: the GI50 was over 100 µM in assay [1]; 8.82 µM in assay [2]; over 100 µM in [3]; 12.5 µM in assay [4]; 35.4 µM in [5]; over 100 µM in assay [6]. The GI50 in assay [7] was over 100 µM; in [8] it was 30.7 µM; in assay [9], 32.8 µM; in assay [10], over 100 µM. In addition, the TGI in assay [1], in [2], in [3], in assay [4], in assay [5] and in assay [6] was over 100 µM throughout. The TGI in [7], in assay [8], in assay [9] and in assay [10] was over 100 µM throughout.
